Test results: ChEMBL document CHEMBL5108027, “An unanticipated discovery of novel naphthalimidopropanediols as potential broad-spectrum antibacterial members” (Eur J Med Chem, 2022)
In brackets after ≈: the same amount, converted by molar mass. Activity calls are given as the source filed them. No cut-off for these calls is given here.

What was measured:
Staphylococcus aureus [1] = assay: Disruption of membrane integrity in Staphylococcus aureus assessed as increase in protein leakage by measuring increase in absorbance 1 to 8 times MIC measured for 6 hrs by Bradford assay; assay type: functional, organism-based
Staphylococcus aureus [2] = assay: Inhibition of biofilm formation in Staphylococcus aureus at 1 to 8 times MIC measured after 24 hrs by crystal violet staining method; assay type: functional, organism-based
Acinetobacter baumannii = assay: Antibacterial activity against Acinetobacter baumannii measured by Muller-Hinton broth based microdilution assay; assay type: functional
Staphylococcus aureus [3] = assay: Antibacterial activity against methicillin-resistant Staphylococcus aureus N315 measured by Muller-Hinton broth based microdilution assay; assay type: functional
Staphylococcus aureus [4] = assay: Bactericidal activity against Staphylococcus aureus assessed as reduction in number of colonies at 0.5 to 2 times MIC measured within 6 hrs by time-kill assay; assay type: functional, organism-based
[5] = Hemolytic activity in human RBC measured after 1 hr; assay type: toxicity, cell-based, Erythrocyte; details: human red blood cells (erythrocytes)
Staphylococcus aureus [6] = assay: Antibiofilm activity in Staphylococcus aureus at 1 to 8 times MIC measured by Alamar blue assay; assay type: functional, organism-based
Escherichia coli [7] = assay: Antibacterial activity against Escherichia coli ATCC 25922 measured by Muller-Hinton broth based microdilution assay; assay type: functional
Staphylococcus aureus [8] = assay: Antibacterial activity against Staphylococcus aureus assessed as reduction in metabolic activity at 1 to 8 times MIC measured after 6 hrs by Alamar blue assay; assay type: functional, organism-based
[9] = Toxicity in systemic sepsis mouse model infected with Staphylococcus aureus assessed as effect on kidney morphology at 2.5 to 5 mg/kg administered every 12 hrs for 3 days and measured by H and E staining-based assay; assay type: organism-based; details: in vivo, 72 h, dose 2.5-5 mg/kg, time 3 day
Escherichia coli [10] = assay: Antibacterial activity against Escherichia coli assessed as deformed and shriveled cell structures at 8 to 16 ug/ml measured by SEM analysis; assay type: functional, organism-based; details: dose 8-16 µg/ml
Staphylococcus aureus [11] = assay: Disruption of membrane integrity in Staphylococcus aureus at 8 times MIC by calcein-AM/PI staining based fluorescence analysis; assay type: functional, organism-based
[12] = Hemolytic activity in human RBC assessed as hemolytic rate at 2 to 512 ug/ml and measured after 1 hr; assay type: toxicity, cell-based, Erythrocyte; details: human red blood cells (erythrocytes), at 2 to 512 µg/mL, dose 2-512 µg/ml, read-out: Activity
Pseudomonas aeruginosa [13] = assay: Antibacterial activity against Pseudomonas aeruginosa measured by Muller-Hinton broth based microdilution assay; assay type: functional
Staphylococcus aureus [14] = assay: Disruption of membrane integrity in Staphylococcus aureus assessed as increase in nucleic acid leakage by measuring increase in absorbance 1 to 8 times MIC measured for 6 hrs by spectrophotometry; assay type: functional, organism-based
Staphylococcus aureus [15] = assay: Antibacterial activity against Staphylococcus aureus ATCC 25923 measured by Muller-Hinton broth based microdilution assay; assay type: functional
L929 = assay: Cytotoxicity against mouse L929 cells assessed as effect on cell growth at 0.25 to 0.5 ug/ml incubated for 24 hrs by MTT assay; assay type: toxicity, cell-based; details: l929, 24 h, dose 0.25-0.5 µg/ml
Staphylococcus aureus [16] = assay: Induction of membrane depolarization in Staphylococcus aureus at 0.5 to 2 times MIC measured upto 1 hr by DiSC35 dye-based fluorescence assay; assay type: functional, organism-based
Escherichia coli [17] = assay: Antibacterial activity against Escherichia coli measured by Muller-Hinton broth based microdilution assay; assay type: functional
Escherichia coli [18] = assay: Antibacterial activity against Escherichia coli assessed as lysed debris at 8 to 16 ug/ml measured by SEM analysis; assay type: functional, organism-based; details: dose 8-16 µg/ml
Enterococcus faecalis = assay: Antibacterial activity against Enterococcus faecalis measured by Muller-Hinton broth based microdilution assay; assay type: functional
[19] = Toxicity in systemic sepsis mouse model infected with Staphylococcus aureus assessed as effect on spleen morphology at 2.5 to 5 mg/kg administered every 12 hrs for 3 days and measured by H and E staining-based assay; assay type: organism-based; details: in vivo, 72 h, dose 2.5-5 mg/kg, time 3 day
Klebsiella pneumoniae = assay: Antibacterial activity against Klebsiella pneumoniae measured by Muller-Hinton broth based microdilution assay; assay type: functional
Staphylococcus aureus [20] = assay: Antibacterial activity against Staphylococcus aureus assessed as deformed and shriveled cell structures at 1 to 2 ug/ml measured by SEM analysis; assay type: functional, organism-based; details: dose 1-2 µg/ml
Staphylococcus aureus [21] = assay: Antibacterial activity against Staphylococcus aureus measured by Muller-Hinton broth based microdilution assay; assay type: functional
Pseudomonas aeruginosa [22] = assay: Antibacterial activity against Pseudomonas aeruginosa ATCC 27853 measured by Muller-Hinton broth based microdilution assay; assay type: functional
Staphylococcus aureus [23] = assay: Induction of oxidative stress in Staphylococcus aureus assessed as increase in intracellular ROS level at 1 to 8 times MIC measured after 6 hrs by DCFH-DA staining method; assay type: functional, organism-based
Staphylococcus aureus [24] = assay: Induction of oxidative stress in Staphylococcus aureus assessed as decrease in GSH activity at 1 to 8 times MIC measured after 6 hrs by Ellman's assay; assay type: functional, organism-based
Staphylococcus aureus [25] = assay: Inhibition of bacterial growth of Staphylococcus aureus at 1 to 2 times MIC; assay type: functional
[26] = Toxicity in systemic sepsis mouse model infected with Staphylococcus aureus assessed as effect on liver morphology at 2.5 to 5 mg/kg administered every 12 hrs for 3 days and measured by H and E staining-based assay; assay type: organism-based; details: in vivo, 72 h, dose 2.5-5 mg/kg, time 3 day
[27] = Selectivity ratio of HC50 for hemolytic activity in human RBC to MIC for antibacterial activity against Staphylococcus aureus; assay type: toxicity; details: human red blood cells (erythrocytes)
Staphylococcus aureus [28] = assay: Antibacterial activity against Staphylococcus aureus ATCC 29213 measured by Muller-Hinton broth based microdilution assay; assay type: functional
Staphylococcus aureus [29] = assay: Antibacterial activity against Staphylococcus aureus assessed as lysed debris at 1 to 2 ug/ml measured by SEM analysis; assay type: functional, organism-based; details: dose 1-2 µg/ml
Staphylococcus aureus [30] = assay: Antibacterial activity against Staphylococcus aureus assessed as reduction in LDH activity at 1 to 8 times MIC measured after 6 hrs by microplate reader method; assay type: functional; design: scale not given: the % may be the effect or the level left
Staphylococcus aureus [31] = assay: Induction of inner membrane permeabilization in Staphylococcus aureus by measuring increase in fluorescence intensity at 1 to 8 times MIC by calcein-AM/PI staining based fluorescence analysis; assay type: functional, organism-based
Staphylococcus aureus [32] = assay: Antibacterial activity against Staphylococcus aureus measured after 16 passages by resistance development assay; assay type: functional, organism-based
Pseudomonas aeruginosa [33] = assay: Antibiofilm activity in Pseudomonas aeruginosa at 1 to 8 times MIC measured by Alamar blue assay; assay type: functional, organism-based
Pseudomonas aeruginosa [34] = assay: Disruption of membrane integrity in Pseudomonas aeruginosa assessed as increase in protein leakage by measuring increase in absorbance 1 to 8 times MIC measured for 6 hrs by Bradford assay; assay type: functional, organism-based
Pseudomonas aeruginosa [35] = assay: Disruption of membrane integrity in Pseudomonas aeruginosa assessed as increase in nucleic acid leakage by measuring increase in absorbance 1 to 8 times MIC measured for 6 hrs by spectrophotometry; assay type: functional, organism-based
Pseudomonas aeruginosa [36] = assay: Antibacterial activity against Pseudomonas aeruginosa assessed as reduction in LDH activity at 1 to 8 times MIC measured after 6 hrs by microplate reader method; assay type: functional; design: scale not given: the % may be the effect or the level left
Pseudomonas aeruginosa [37] = assay: Disruption of membrane integrity in Pseudomonas aeruginosa at 8 times MIC by calcein-AM/PI staining based fluorescence analysis; assay type: functional, organism-based
Pseudomonas aeruginosa [38] = assay: Induction of membrane depolarization in Pseudomonas aeruginosa at 0.5 to 2 times MIC measured upto 1 hr by DiSC35 dye-based fluorescence assay; assay type: functional, organism-based
Pseudomonas aeruginosa [39] = assay: Inhibition of biofilm formation in Pseudomonas aeruginosa at 1 to 8 times MIC measured after 24 hrs by crystal violet staining method; assay type: functional, organism-based
Pseudomonas aeruginosa [40] = assay: Induction of oxidative stress in Pseudomonas aeruginosa assessed as increase in intracellular ROS level at 1 to 8 times MIC measured after 6 hrs by DCFH-DA staining method; assay type: functional, organism-based
Pseudomonas aeruginosa [41] = assay: Induction of outer membrane permeabilization in Pseudomonas aeruginosa preincubated for 30 mins at 1 to 8 times MIC measured by NPN fluorescent dye based assay; assay type: functional, organism-based
Pseudomonas aeruginosa [42] = assay: Antibacterial activity against Pseudomonas aeruginosa assessed as reduction in metabolic activity at 1 to 8 times MIC measured after 6 hrs by Alamar blue assay; assay type: functional, organism-based
Pseudomonas aeruginosa [43] = assay: Induction of inner membrane permeabilization in Pseudomonas aeruginosa by measuring increase in fluorescence intensity at 1 to 8 times MIC by calcein-AM/PI staining based fluorescence analysis; assay type: functional, organism-based
Pseudomonas aeruginosa [44] = assay: Inhibition of bacterial growth of Pseudomonas aeruginosa at 1 to 2 times MIC; assay type: functional
[45] = Selectivity ratio of HC50 for hemolytic activity in human RBC to MIC for antibacterial activity against Pseudomonas aeruginosa; assay type: toxicity; details: human red blood cells (erythrocytes)
Pseudomonas aeruginosa [46] = assay: Induction of oxidative stress in Pseudomonas aeruginosa assessed as decrease in GSH activity at 1 to 8 times MIC measured after 6 hrs by Ellman's assay; assay type: functional, organism-based
Pseudomonas aeruginosa [47] = assay: Antibacterial activity against Pseudomonas aeruginosa measured after 16 passages by resistance development assay; assay type: functional, organism-based
Pseudomonas aeruginosa [48] = assay: Bactericidal activity against Pseudomonas aeruginosa assessed as reduction in number of colonies at 0.5 to 2 times MIC measured within 6 hrs by time-kill assay; assay type: functional, organism-based

CCn1c2ccccc2c2cc(/C=N/Nc3ccc4c5c(cccc35)C(=O)N(C(CO)CO)C4=O)ccc21
Activity (Staphylococcus aureus [1]): Active | inhibition (Staphylococcus aureus [2]): Active | MIC (Acinetobacter baumannii): 64 µg/mL (≈ 126 µM) | MIC (Staphylococcus aureus [3]): 64 µg/mL (≈ 126 µM) | Activity (Staphylococcus aureus [4]): Active | HC50 at 1 h [5]: 722 µg/mL | Activity (Staphylococcus aureus [6]): Active | MIC (Escherichia coli [7]): 128 µg/mL (≈ 253 µM) | Activity (Staphylococcus aureus [8]): Active | Activity [9]: Non-Toxic | Activity (Escherichia coli [10]): Active | Activity (Staphylococcus aureus [11]): Active | hemolysis at 1 h [12]: < 5% | MIC (Pseudomonas aeruginosa [13]): 64 µg/mL (≈ 126 µM) | Activity (Staphylococcus aureus [14]): Active | MIC (Staphylococcus aureus [15]): 2 µg/mL (≈ 3.95 µM) | Activity (L929): Non-Toxic | Activity (Staphylococcus aureus [16]): Active | MIC (Escherichia coli [17]): 8 µg/mL (≈ 15.8 µM) | Activity (Escherichia coli [18]): Active | MIC (Enterococcus faecalis): 8 µg/mL (≈ 15.8 µM) | Activity [19]: Non-Toxic | MIC (Klebsiella pneumoniae): 8 µg/mL (≈ 15.8 µM) | Activity (Staphylococcus aureus [20]): Active | MIC (Staphylococcus aureus [21]): 0.25 µg/mL (≈ 0.494 µM) | MIC (Pseudomonas aeruginosa [22]): 2 µg/mL (≈ 3.95 µM) | Activity (Staphylococcus aureus [23]): Active | Activity (Staphylococcus aureus [24]): Active | inhibition (Staphylococcus aureus [25]): Active | Activity [26]: Non-Toxic | selectivity ratio [27]: 2890 | MIC (Staphylococcus aureus [28]): 0.5 µg/mL (≈ 0.987 µM) | Activity (Staphylococcus aureus [29]): Active | Activity (Staphylococcus aureus [30]): 70% | Activity (Staphylococcus aureus [31]): Active | Activity (Staphylococcus aureus [32]): Active

COc1ccc(/C=N/Nc2ccc3c4c(cccc24)C(=O)N(C(CO)CO)C3=O)cc1
MIC (Acinetobacter baumannii): 64 µg/mL (≈ 153 µM) | MIC (Staphylococcus aureus [3]): 64 µg/mL (≈ 153 µM) | HC50 at 1 h [5]: > 1000 µg/mL | MIC (Escherichia coli [7]): 64 µg/mL (≈ 153 µM) | Activity (Pseudomonas aeruginosa [33]): Active | hemolysis at 1 h [12]: < 5% | MIC (Pseudomonas aeruginosa [13]): 0.5 µg/mL (≈ 1.19 µM) | MIC (Staphylococcus aureus [15]): 64 µg/mL (≈ 153 µM) | Activity (L929): Non-Toxic | MIC (Escherichia coli [17]): 16 µg/mL (≈ 38.1 µM) | Activity (Pseudomonas aeruginosa [34]): Active | Activity (Pseudomonas aeruginosa [35]): Active | MIC (Enterococcus faecalis): 64 µg/mL (≈ 153 µM) | Activity (Pseudomonas aeruginosa [36]): 70% | Activity (Pseudomonas aeruginosa [37]): Active | Activity (Pseudomonas aeruginosa [38]): Active | inhibition (Pseudomonas aeruginosa [39]): Active | MIC (Klebsiella pneumoniae): 32 µg/mL (≈ 76.3 µM) | MIC (Staphylococcus aureus [21]): 32 µg/mL (≈ 76.3 µM) | Activity (Pseudomonas aeruginosa [40]): Active | Activity (Pseudomonas aeruginosa [41]): Active | Activity (Pseudomonas aeruginosa [42]): Active | MIC (Pseudomonas aeruginosa [22]): 2 µg/mL (≈ 4.77 µM) | MIC (Staphylococcus aureus [28]): 128 µg/mL (≈ 305 µM) | Activity (Pseudomonas aeruginosa [43]): Active | inhibition (Pseudomonas aeruginosa [44]): Active | selectivity ratio [45]: > 2000 | Activity (Pseudomonas aeruginosa [46]): Active | Activity (Pseudomonas aeruginosa [47]): Active | Activity (Pseudomonas aeruginosa [48]): Active
